pEC50, pIC50: −log10 of the molar value. Calls of active or inactive are those of the source. The rule behind the calls is not given here.
How the values were obtained:
[1] = target: T1, Glutamate NMDA receptor; GRIN1/GRIN2A (Homo sapiens, UniProt Q05586+Q12879); assay: Positive allosteric modulator activity at GluN1a/GluN2A (unknown origin) expressed in CHO cells in presence of glutamate by Ca2+ influx assay; type: cell-based
[2] = target: T1, Glutamate NMDA receptor; GRIN1/GRIN2A; assay: Positive allosteric modulator activity at GluN1a/GluN2A (unknown origin) expressed in CHO cells assessed as maximum potentiation at 30 uM in presence of glutamate by Ca2+ influx assay relative to control; type: cell-based
[3] = 1-Octanol/aqueous buffer distribution coefficient, log D of the compound at pH 7.4 by HPLC analysis; type: physicochemical
[4] = target: T2, Glutamate receptor 2 (Homo sapiens, UniProt P42262); assay: Displacement of [3H]-HBT1 from His-tagged GluA2-AMPA (unknown origin) receptor expressed in CHO cells in presence of glutamate by scintillation proximity assay; type: cell-based
[5] = Clearance in rat liver microsomes at 1 uM in presence of NADPH measured for 15 to 30 min by LC-MS/MS analysis; type: ADME, Microsome; settings: time 15-30 min, read-out: CLH
[6] = target: T2, Glutamate receptor 2; assay: Positive allosteric modulator activity at GluA2-AMPA receptor (unknown origin) by FLIPR assay
[7] = target: T2, Glutamate receptor 2; assay: Displacement of [3H]-HBT1 from GluA2-AMPA receptor (unknown origin) in presence of glutamate by scintillation proximity assay
[8] = target: Glutamate receptor ionotropic, NMDA 2A (Homo sapiens, UniProt Q05586+Q12879); assay: Positive allosteric modulator activity at GluN2A receptor (unknown origin) by FLIPR assay
[9] = target: Glutamate receptor ionotropic, NMDA 2A (Homo sapiens) (UniProt Q12879); assay: Positive allosteric modulator activity at GluN2A receptor (unknown origin) assessed as maximum potentiation by FLIPR assay relative to control; settings: filed as positive allosteric modulator
[10] = target: T2, Glutamate receptor 2; assay: Positive allosteric modulator activity at GluA2-AMPA receptor (unknown origin) assessed as maximum potentiation by FLIPR assay relative to control
[11] = Clearance in human liver microsomes at 1 uM in presence of NADPH measured for 15 to 30 min by LC-MS/MS analysis; type: ADME, Microsome; settings: time 15-30 min, read-out: CLH
[12] = Ratio of drug concentration in brain to plasma at 3 mg/kg, po after 0.5 hr by LC-MS/MS analysis; type: ADME, organism-based; settings: rat, brain and plasma, read-out: BPR
[13] = target: T3, Ionotropic glutamate receptor NMDA 1/2C (Homo sapiens, UniProt Q05586+Q14957); assay: Positive allosteric modulator activity at GluN1a/GluN2C (unknown origin) expressed in CHO cells in presence of glutamate by Ca2+ influx assay; type: cell-based
[14] = Volume of distribution at steady state in rat at 1 mg/kg, iv by LC-MS/MS analysis; type: ADME, organism-based; settings: in vivo, read-out: Vdss
[15] = Total clearance in rat at 1 mg/kg, iv by LC-MS/MS analysis; type: ADME, organism-based; settings: in vivo
[16] = AUC in rat at 10 mg/kg, po by LC-MS/MS analysis; type: ADME, organism-based; design: dose 10 mg/kg, route po; settings: in vivo
[17] = MRT in rat at 10 mg/kg, po by LC-MS/MS analysis; type: ADME, organism-based; settings: in vivo
[18] = Oral bioavailability in rat at 10 mg/kg by LC-MS/MS analysis; type: ADME, organism-based; settings: in vivo
[19] = Drug concentration in rat plasma at 3 mg/kg, po after 0.5 hrs by LC-MS/MS analysis; type: ADME, organism-based
[20] = Drug concentration in rat plasma at 3 mg/kg, po after 1 hrs by LC-MS/MS analysis; type: ADME, organism-based
[21] = Drug concentration in rat plasma at 3 mg/kg, po after 2 hrs by LC-MS/MS analysis; type: ADME, organism-based
[22] = Drug concentration in rat brain at 3 mg/kg, po after 0.5 hrs by LC-MS/MS analysis; type: ADME, organism-based; settings: read-out: Ct
[23] = Drug concentration in rat brain at 3 mg/kg, po after 1 hrs by LC-MS/MS analysis; type: ADME, organism-based; settings: read-out: Ct
[24] = Drug concentration in rat brain at 3 mg/kg, po after 2 hrs by LC-MS/MS analysis; type: ADME, organism-based; settings: read-out: Ct
[25] = Ratio of drug concentration in brain to plasma at 3 mg/kg, po after 1 hr by LC-MS/MS analysis; type: ADME, organism-based; settings: rat, brain and plasma, read-out: BPR
[26] = Ratio of drug concentration in brain to plasma at 3 mg/kg, po after 2 hr by LC-MS/MS analysis; type: ADME, organism-based; settings: rat, brain and plasma, read-out: BPR
[27] = target: Ionotropic glutamate receptor NMDA 1/2D (Homo sapiens, UniProt O15399+Q05586); assay: Positive allosteric modulator activity at GluN1a/GluN2D (unknown origin) expressed in CHO cells in presence of glutamate by Ca2+ influx assay; type: cell-based
[28] = tested on: CHO; assay: Positive allosteric modulator activity at GluN1a/GluN2B (unknown origin) expressed in CHO cells at 30 uM in presence of glutamate by Ca2+ influx assay relative to control; type: cell-based; settings: Homo sapiens
[29] = target: T3, Ionotropic glutamate receptor NMDA 1/2C; assay: Positive allosteric modulator activity at GluN1a/GluN2C (unknown origin) expressed in CHO cells at 30 uM in presence of glutamate by Ca2+ influx assay relative to control; type: cell-based; settings: filed as positive allosteric modulator
[30] = target: Ionotropic glutamate receptor NMDA 1/2D (Homo sapiens) (UniProt Q05586+O15399); assay: Positive allosteric modulator activity at GluN1a/GluN2D (unknown origin) expressed in CHO cells at 30 uM in presence of glutamate by Ca2+ influx assay relative to control; type: cell-based; settings: filed as positive allosteric modulator
[31] = species: Homo sapiens; assay: Selectivity index, ratio of EC50 for GluN1a/GluN2B (unknown origin) expressed in CHO cells to EC50 for GluN1a/GluN2A (unknown origin) expressed in CHO cells; type: cell-based
[32] = species: Homo sapiens; assay: Selectivity index, ratio of EC50 for GluN1a/GluN2C (unknown origin) expressed in CHO cells to EC50 for GluN1a/GluN2A (unknown origin) expressed in CHO cells; type: cell-based
[33] = species: Homo sapiens; assay: Selectivity index, ratio of EC50 for GluN1a/GluN2D (unknown origin) expressed in CHO cells to EC50 for GluN1a/GluN2A (unknown origin) expressed in CHO cells; type: cell-based
[34] = tested on: Rattus norvegicus; assay: Induction of LTP enhancement in Sprague-Dawley rat assessed as increase in LTP enhancement in hippocampal slices at 10 mg/kg, po; type: functional, organism-based
[35] = Cmax in rat at 1 mg/kg, iv by LC-MS/MS analysis; type: ADME, organism-based; design: dose 1 mg/kg, route iv; settings: in vivo
[36] = filed as positive allosteric modulator

T2 sequence (P42262 whole entry): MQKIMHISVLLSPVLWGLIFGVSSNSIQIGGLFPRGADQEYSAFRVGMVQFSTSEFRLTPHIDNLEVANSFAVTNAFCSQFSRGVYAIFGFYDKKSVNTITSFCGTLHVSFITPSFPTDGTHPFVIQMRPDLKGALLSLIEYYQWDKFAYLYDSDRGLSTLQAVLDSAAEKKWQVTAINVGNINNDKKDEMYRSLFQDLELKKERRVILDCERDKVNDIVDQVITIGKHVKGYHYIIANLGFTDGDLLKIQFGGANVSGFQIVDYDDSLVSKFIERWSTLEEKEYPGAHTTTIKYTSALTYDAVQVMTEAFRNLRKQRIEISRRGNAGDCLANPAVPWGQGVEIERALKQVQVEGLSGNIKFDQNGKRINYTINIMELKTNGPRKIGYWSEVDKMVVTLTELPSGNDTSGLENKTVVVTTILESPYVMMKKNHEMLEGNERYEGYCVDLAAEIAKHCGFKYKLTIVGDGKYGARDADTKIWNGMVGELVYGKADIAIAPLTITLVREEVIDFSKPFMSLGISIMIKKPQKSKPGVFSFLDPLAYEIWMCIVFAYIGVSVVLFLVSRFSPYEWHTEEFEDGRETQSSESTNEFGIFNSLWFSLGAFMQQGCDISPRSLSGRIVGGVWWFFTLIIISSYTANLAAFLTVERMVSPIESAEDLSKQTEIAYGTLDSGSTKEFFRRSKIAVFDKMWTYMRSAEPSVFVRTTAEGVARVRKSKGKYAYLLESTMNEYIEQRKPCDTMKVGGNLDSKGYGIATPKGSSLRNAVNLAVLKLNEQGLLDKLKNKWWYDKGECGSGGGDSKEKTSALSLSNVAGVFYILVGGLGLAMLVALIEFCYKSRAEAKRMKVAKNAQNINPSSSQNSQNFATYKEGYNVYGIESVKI

CCN(Cc1cc2ccn(CC#N)c(=O)c2s1)c1ccc(F)cc1
pEC50 [1]: < 4.52 | %max [2, 36]: 230% | logD [3]: 2.63 | pIC50 [4]: < 4.52

Cc1cn(CCC#N)c(=O)c2cc(Cn3nc(C(F)(F)F)cc3Cl)nn12
%max [2, 36]: 420% | logD [3]: 2.32 | pIC50 [4]: 4.72 | microsomal CLint at 1 µM [5]: 7 µL/min/mg

Cc1cn(CCC#N)c(=O)c2cc(Cn3nc(Br)cc3Cl)nn12
pEC50 [1]: 5.82 | %max [2, 36]: 160% | logD [3]: 2.16 | pIC50 [4]: < 4.52 | microsomal CLint at 1 µM [5]: 1 µL/min/mg

N#C[C@H]1C[C@H]1c1c(C(F)(F)F)sc2nc(Cn3nc(C(F)(F)F)cc3Cl)cc(=O)n12
pEC50 [6]: 4.62 | pIC50 [7]: 6.06 | pEC50 [8]: 7.96 | %max [9]: 416% | %max ([10]; BLD = below limit of detection): Bld

CCN(Cc1cc2ccn(CCC#N)c(=O)c2s1)c1ccc(F)cc1
pEC50 [1]: 5.64 | %max [2, 36]: 450% | logD [3]: 2.68 | pIC50 [4]: < 4.52

CCN(Cc1cc2c(=O)n(CCC#N)cc(C)n2n1)c1ccc(F)cc1
microsomal CLint at 1 µM [11]: 37 µL/min/mg | pEC50 [1]: 6.80 | %max [2, 36]: 420% | logD [3]: 2.83 | pIC50 [4]: 4.66 | microsomal CLint at 1 µM [5]: 91 µL/min/mg

CCN(Cc1cc2cc(C)n(CCC#N)c(=O)c2s1)c1ccc(F)cc1
pEC50 [1]: 6.22 | %max [2, 36]: 440% | logD [3]: 2.95 | pIC50 [4]: 6.21

Cc1cn([C@@H](C)CC#N)c(=O)c2cc(Cn3nc(C(F)F)cc3Cl)nn12
%max [2]: < 150% | logD [3]: 2.06 | pIC50 [4]: < 4.52

Cc1cn([C@H](C)CC#N)c(=O)c2cc(Cn3nc(C(F)F)cc3Cl)nn12
Kp at 0.5 h [12]: 0.59 | pEC50 [13]: < 4.52 | microsomal CLint at 1 µM [11]: 33 µL/min/mg | pEC50 [1]: 6.29 | %max [2, 36]: 350% | logD [3]: 2.06 | pIC50 [4]: < 4.52 | Vd [14]: 0.657 L/kg | clearance [15]: 3.92 mL/min/kg | AUC [16]: 9140 ng·h/mL | MRT [17]: 3.5 h | bioavailability [18]: 21.4% | concentration at 0.5 h [19]: 523 ng/mL | concentration at 1 h [20]: 397 ng/mL | concentration at 2 h [21]: 286 ng/mL | concentration at 0.5 h [22]: 307 ng/g | concentration at 1 h [23]: 187 ng/g | concentration at 2 h [24]: 146 ng/g | Kp at 1 h [25]: 0.47 | Kp at 2 h [26]: 0.51 | pEC50 [27]: < 4.52 | %max [28]: < 150% | %max [29]: 200% | %max [30]: 260% | Ratio EC50 [31]: > 59 | Ratio EC50 [32]: 19 | Ratio EC50 [33]: 19 | Activity [34]: Active | Cmax [35]: 1910 ng/mL

CCc1cn(CCC#N)c(=O)c2sc(CN(CC)c3ccc(F)cc3)cc12
pEC50 [1]: 5.36 | %max [2, 36]: 410% | logD [3]: 3.34 | pIC50 [4]: < 4.52

Cc1cn(CCC#N)c(=O)c2cc(Cn3nc(C(F)F)cc3Cl)nn12
pEC50 [1]: 5.70 | %max [2, 36]: 220% | logD [3]: 1.88 | pIC50 [4]: < 4.52

CCN(Cc1cc2c(=O)n(CCC#N)ccn2n1)c1ccc(F)cc1
pEC50 [1]: 5.28 | %max [2, 36]: 420% | logD [3]: 2.45 | pIC50 [4]: 4.66

Cc1cc(Cl)n(Cc2cc3c(=O)n(CCC#N)cc(C)n3n2)n1
microsomal CLint at 1 µM [11]: 8 µL/min/mg | %max [2]: < 150% | logD [3]: 1.84 | pIC50 [4]: < 4.52 | microsomal CLint at 1 µM [5]: 10 µL/min/mg

Cc1cn(CCC#N)c(=O)c2cc(Cn3nc(Cl)cc3Cl)nn12
pEC50 [1]: < 4.52 | %max [2]: < 150% | logD [3]: 2.07 | pIC50 [4]: < 4.52 | microsomal CLint at 1 µM [5]: 13 µL/min/mg

CCN(Cc1cc2c(C)cn(CCC#N)c(=O)c2s1)c1ccc(F)cc1
pEC50 [1]: 6.74 | %max [2, 36]: 480% | logD [3]: 3.01 | pIC50 [4]: < 4.52

CCN(Cc1cc2c(=O)n(CCC#N)ccc2s1)c1ccc(F)cc1
pEC50 [1]: < 4.52 | %max [2, 36]: 320% | logD [3]: 2.92 | pIC50 [4]: 6.21

CCN(Cc1ccc(C(=O)N2CCC[C@@H]2C#N)s1)c1ccc(F)cc1
pEC50 [6]: < 4.52 | pIC50 [7]: 5.92 | pEC50 [8]: < 4.52 | %max [9]: 270% | %max ([10]; BLD = below limit of detection): Bld | logD [3]: 2.06

N#C[C@H]1C[C@H]1c1c(Cl)ccc2nc(Cn3nc(C(F)(F)F)cc3Cl)cc(=O)n12
pEC50 [6]: < 4.52 | pIC50 [7]: 6.42 | pEC50 [8]: 7.41 | %max [9]: 471% | %max [10]: 61%

Reference: ChEMBL document CHEMBL5143566, “Discovery of Pyrazolo[1,5-a]pyrazin-4-ones as Potent and Brain Penetrant GluN2A-Selective Positive Allosteric Modulators Reducing AMPA Receptor Binding Activity” (Bioorg Med Chem, 2022)
